Assay results reported in ChEMBL document CHEMBL1145464, “Modeling the combination of amphotericin B, micafungin, and nikkomycin Z against Aspergillus fumigatus in vitro using a novel response surface paradigm” (2007).
In brackets after ≈: the same amount, converted by molar mass. *1 amine or outer side, *2 acyl side, *3 side chain or, on linkers, in order; H or OH if unused. Where a SMILES comes first, the peptide text is derived from it. Bridges are numbered along the chain shown (N, C = ends). [ ]: non-standard residue; d: D form. The star is where a group is joined. hTyr(3S-OH,4S-OH,3'-OSO3H) = N[C@H](C(=O)O)[C@H](O)[C@@H](O)c1ccc(O)c(OS(=O)(=O)O)c1; Orn(4R-OH,5R-OH) = O=C([C@H](C[C@@H](O)[C@@H](O)N[*:3])N[*:1])[*:2]; Pro(3S-OH,4S-Me) = C[C@H]1CN[C@H](C(=O)O)[C@H]1O; X1 = CCCCCOc1ccc(-c2cc(-c3ccc(C(=O)*)cc3)no2)cc1; Gln(3R-OH) = NC(=O)C[C@@H](O)[C@H](N)C(=O)O; Hyp = O=C(O)[C@@H]1C[C@@H](O)CN1

Tests used:
Aspergillus fumigatus [1] = assay: Antifungal activity against Aspergillus fumigatus isolate after 48 hrs by CLSI method
Aspergillus fumigatus [2] = assay: Antifungal activity against Aspergillus fumigatus isolate after 24 hrs by CLSI method

C[C@@H]([C@H](N)C(=O)N[C@H](C(=O)O)[C@H]1O[C@@H](n2ccc(=O)[nH]c2=O)[C@H](O)[C@@H]1O)[C@H](O)c1ccc(O)cn1 [NIKKOMYCIN]
MIC (Aspergillus fumigatus [1]): 128 µg/mL (≈ 258 µM) | MIC (Aspergillus fumigatus [2]): 64 µg/mL (≈ 129 µM)

CCCCCOc1ccc(-c2cc(-c3ccc(C(=O)N[C@H]4C[C@@H](O)[C@@H](O)NC(=O)[C@@H]5[C@@H](O)[C@@H](C)CN5C(=O)[C@H]([C@H](O)CC(N)=O)NC(=O)[C@H]([C@H](O)[C@@H](O)c5ccc(O)c(OS(=O)(=O)O)c5)NC(=O)[C@@H]5C[C@@H](O)CN5C(=O)[C@H]([C@@H](C)O)NC4=O)cc3)no2)cc1 [MICAFUNGIN] (X1-[Orn(4R-OH,5R-OH)]T[Hyp][hTyr(3S-OH,4S-OH,3'-OSO3H)][Gln(3R-OH)][Pro(3S-OH,4S-Me)]; lactam 1-C)
MIC (Aspergillus fumigatus [1]): ≤ 0.03 µg/mL | MIC (Aspergillus fumigatus [2]): ≤ 0.03 µg/mL

C[C@@H]1[C@H](O)[C@@H](C)/C=C/C=C/C=C/C=C/C=C/C=C/C=C/[C@H](O[C@@H]2O[C@H](C)[C@@H](O)[C@H](N)[C@@H]2O)C[C@@H]2O[C@](O)(C[C@@H](O)C[C@@H](O)[C@H](O)CC[C@@H](O)C[C@@H](O)CC(=O)O[C@H]1C)C[C@H](O)[C@H]2C(=O)O (stereo in doubt) [AMPHOTERICIN B]
MIC (Aspergillus fumigatus [1]): 0.5 µg/mL (≈ 0.541 µM) | MIC (Aspergillus fumigatus [2]): 0.5 µg/mL (≈ 0.541 µM)
